One assay deals with Plasmopara viticola. The assay can be described thus: Prophylactic leaf treatment of grapevines in the hothouse against Plasmopara viticola. Type of assay: in vivo. The method, then:
Effects of prophylactic leaf treatment of grapevines in the hothouse against Plasmopara viticola
Young grapevine plants having from 5 to 8 leaves were sprayed dripping wet with the concentrations of active agents stated in the table below. After drying of the spray deposit the leaves were sprayed with an aqueous suspension of sporangia of the fungus (about 20,000 per ml); the spraying was applied to the bottom side of the leaves. The plants were then immediately incubated in a hothouse at a temperature of 22° to 24° C. and at maximum water saturation in the atmosphere. Beginning with the second day the humidity of the air was reduced for 3 to 4 days to normal level (30 to 70% saturation) and was then maintained for another day on the level of full saturation. Subsequently, the percentage portion of the fungus infested surface of each leaf was noted and the average per treatment was calculated in order to determine the fungicidal activity. This was done on the basis of the following formula: [formula]
The active compounds were applied in the form of a 20% concentration spray powder.

Another assay relates to Fusarium avenaceum. The assay can be described thus: Threshold concentration test in case of Fusarium avenaceum (infested soil, garden peas). In kind it is in vivo. Conditions: for number of sound peas: 20 grains per dish, 18 days at 20-24° C.; for root evaluation (1-4): 18 days. The method, then:
Threshold concentration test in case of Fusarium avenaceum
A 20% pulverulent active agent of the type further identified in the table below was mixed in uniform manner with a soil which had been heavily infested with Fusarium avenaceum. The thus treated soil was then placed into clay dishes of a capacity of 0.5 l of earth. Each dish was seeded without any intervening time with 20 grains of garden peas (Pisum sativum L. convar. medullare Alef.) of the type "Wunder von Kelvedon". After a cultivation time of 18 days at 20° to 24° C. in a hot house the number of sound peas was determined and a root evaluation was carried out. The active agents employed, the amounts and results appear from the following table.
(§1) The root evaluation was carried out on a scale from 1 to 4 as follows: […]

The next assay has as its system Tilletia caries. The assay can be described thus: Treatment of oat seeds infested with Tilletia caries (spore germination). In kind it is in vivo.
For another assay, the system named is Pythium ultimum. The assay can be described thus: Threshold concentration test for use of the compounds against Pythium ultimum (infested soil, garden peas). Particulars: for root evaluation (1-4): 3 weeks; for number of sound peas: 20 grains per dish, 3 weeks at 20-24° C. Also noted: key to root evaluation (1-4): 4: white roots without fungous necrosis; 3: white roots, minor fungous necrosis; 2: brown roots, already more pronounced fungous necrosis; 1: heavy fungous necrosis, roots rotted. In kind it is in vivo. The method, then:
Threshold concentration test for use of the compounds against Pythium ultimum
A 20% concentration of certain pulverulent active agents as listed below were mixed in uniform manner into a soil which had been heavily infested by Pythium ultimum. The thus treated soil was then placed into clay dishes of a capacity of 0.5 l earth. Without any intermediate time lapse 20 grain of garden peas (Pisum sativum L. convar. medullare Alef.) of the type "Wunder von Kelvedon" were then seeded into each of the clay dishes. After a cultivation period of three weeks at 20° to 24° C. in a hothouse the number of sound peas was determined and a root evaluation was carried out. The active agents amounts and results appear from the following table.
as §1

Another assay has as its system Helminthosporium gram. Particulars: about 5 weeks.
In assay [1] the test system is Helminthosporium gramineum. As to the kind of experiment: Seed treatment in open field tests for infestation by Helminthosporium gramineum (barley). Conditions: summer barley, about 3 months. In kind it is in vivo. How it is done:
Seed treatment in open field tests for infestation by Helminthosporium gramineum
The active agents were used in the form of pulverulent compositions. After about 8 months in case of winter barley and after about 3 months in case of summer barley the infested plants were counted and the activity was calculated by the formula [formula]

Setting [2] is: concentration of active agent 0.005 (unit not given).
The mark [3] stands for this setting: concentration of active agent 0.025 (unit not given).
Setting [4] is: 25 g active agent/100 kg barley.
The mark [5] stands for this setting: 50 g active agent/100 kg barley.
[6] abbreviates: 100 g active agent/100 kg barley.
Where [7] appears, read: concentration of active agent 0.001 (unit not given).

Like-named read-outs stand apart in the source and are kept apart here.

Consider `CCCCS(=O)(=O)c1nnc(C#N)s1` [5-butylsulfonyl-1,3,4-thiadiazole-2-carbonitrile], for which the “% activity” value is recorded as 91% with Plasmopara viticola (setting [2]), 93% with Plasmopara viticola (setting [3]), 95% with Tilletia caries (20 g active agent per 100 kg) and 100% with Tilletia caries (50 g active agent per 100 kg). Besides, the figures for the “number of sound peas” value in the assay on Fusarium avenaceum (25 mg/l soil), with Fusarium avenaceum (50 mg/l soil) and in the assay on Fusarium avenaceum (100 mg/l soil) were 18, 20 and 20, respectively. The “root evaluation (1-4)” value with Fusarium avenaceum (25 mg/l soil), in the assay on Fusarium avenaceum (50 mg/l soil) and in the assay on Fusarium avenaceum (100 mg/l soil) was 4 each time.
In the case of `CCCCS(=O)(=O)c1nnc(C(N)=O)s1` [5-butylsulfonyl-1,3,4-thiadiazole-2-carboxamide], the “% activity” value stood at 73% with Plasmopara viticola (setting [2]) and 90% with Plasmopara viticola (setting [3]). Also, the “number of sound peas” value in the assay on Fusarium avenaceum (25 mg/l soil) is reported as 15; in the assay on Fusarium avenaceum (50 mg/l soil), 12; in the assay on Fusarium avenaceum (100 mg/l soil) it was 16; with Pythium ultimum (20 mg/l soil) it was 11; with Pythium ultimum (40 mg/l soil), 20; with Pythium ultimum (80 mg/l soil), 18. Also, the “root evaluation (1-4)” value is reported as 2 in the assay on Fusarium avenaceum (25 mg/l soil); 3 in the assay with Fusarium avenaceum (50 mg/l soil); 4 with Fusarium avenaceum (100 mg/l soil); 1 in the assay with Pythium ultimum (20 mg/l soil); 4 with Pythium ultimum (40 mg/l soil); 4 in the assay with Pythium ultimum (80 mg/l soil).
Take `CCNC(=O)c1nnc(S(=O)(=O)CC)s1` [5-ethylsulfonyl-1,3,4-thiadiazole-2-carboxylic acid ethylamide]: the “% activity” value with Plasmopara viticola (setting [3]) amounted to 98%; with Helminthosporium gram (20 g active agent per 100 kg), 100%; in the assay with Helminthosporium gram (50 g active agent per 100 kg), 100%; in assay [1] (setting [4]), 98%; in assay [1] (setting [5]), 99.5%; in assay [1] (setting [6]), 100%. The entries for the “% activity” value with Tilletia caries (10 g active agent per 100 kg), with Tilletia caries (20 g active agent per 100 kg) and in the assay with Tilletia caries (50 g active agent per 100 kg) were 99.3%, 100% and 100%, respectively. The “root evaluation (1-4)” value in the assay with Pythium ultimum (20 mg/l soil), with Pythium ultimum (40 mg/l soil) and with Pythium ultimum (80 mg/l soil) was 4 throughout. Besides, the “number of sound peas” value was 15 in the assay with Pythium ultimum (20 mg/l soil), 16 in the assay on Pythium ultimum (40 mg/l soil) and 16 with Pythium ultimum (80 mg/l soil).
For `CCS(=O)(=O)c1nnc(C(=O)N2CCOCC2)s1` [5-ethylsulfonyl-1,3,4-thiadiazole-2-carboxylic acid-(N,N-3-oxapentamethyleneamide], the “% activity” value with Helminthosporium gram (10 g active agent per 100 kg) came to 99%; with Helminthosporium gram (20 g active agent per 100 kg), 100%; in the assay with Helminthosporium gram (50 g active agent per 100 kg), 100%; in assay [1] (setting [5]) it was 99.3%; in the assay with Tilletia caries (50 g active agent per 100 kg), 100%.
For `CCCCN(C)C(=O)c1nnc(S(=O)(=O)CC)s1` [5-ethylsulfonyl-1,3,4-thiadiazole-2-carboxylic acid-(N-butyl,N-methyl)-amide], the “% activity” value in the assay with Plasmopara viticola (setting [7]) came out at 100%; in the assay on Plasmopara viticola (setting [2]), 100%; in the assay on Plasmopara viticola (setting [3]) it was 100%; in the assay on Helminthosporium gram (20 g active agent per 100 kg), 100%; in the assay on Helminthosporium gram (50 g active agent per 100 kg), 100%; in assay [1] (setting [4]), 94%. For the same molecule, the “% activity” value stood at 96.9% in assay [1] (setting [5]); 99.5% in assay [1] (setting [6]); 98% with Tilletia caries (10 g active agent per 100 kg); 100% with Tilletia caries (20 g active agent per 100 kg); 100% in the assay on Tilletia caries (50 g active agent per 100 kg).
Take `CCS(=O)(=O)c1nnc(C(=O)NC2CC2)s1` [5-ethylsulfonyl-1,3,4-thiadiazole-2-carboxylic acid-cyclopropylamide]: the “% activity” value in assay [1] (200 g active agent/100 kg barley) came out at 100%; in the assay with Tilletia caries (10 g active agent per 100 kg) it was 85%; in the assay with Tilletia caries (20 g active agent per 100 kg), 100%; in the assay with Tilletia caries (50 g active agent per 100 kg), 100%.
In the case of `COCCNC(=O)c1nnc([S+](C)[O-])s1` (stereo not shown) [5-methylsulfinyl-1,3,4-thiadiazole-2-carboxylic acid-(2-methoxyethyl)-amide], the “% activity” value with Plasmopara viticola (setting [3]) is listed as 96%; with Helminthosporium gram (10 g active agent per 100 kg) it was 75%; in the assay with Helminthosporium gram (20 g active agent per 100 kg) it was 97%; in the assay on Helminthosporium gram (50 g active agent per 100 kg) it was 100%.
Turning to `C[S+]([O-])c1nnc(C(=O)N2CCC2)s1` (stereo not shown) [5-methylsulfinyl-1,3,4-thiadiazole-2-carboxylic acid-N,N-trimethylenamide], the “% activity” value is on record as 86% in the assay on Plasmopara viticola (setting [7]); 93% with Plasmopara viticola (setting [2]); 94% in the assay on Plasmopara viticola (setting [3]); 95% in the assay with Helminthosporium gram (20 g active agent per 100 kg); 100% with Helminthosporium gram (50 g active agent per 100 kg); 96% in the assay with Tilletia caries (20 g active agent per 100 kg). The “% activity” value in the assay with Tilletia caries (50 g active agent per 100 kg) is on record as 100%. The results for the “root evaluation (1-4)” value with Pythium ultimum (20 mg/l soil), in the assay on Pythium ultimum (40 mg/l soil) and with Pythium ultimum (80 mg/l soil) were 2, 4 and 4, respectively. In addition, the entries for the “number of sound peas” value in the assay with Pythium ultimum (20 mg/l soil), in the assay with Pythium ultimum (40 mg/l soil) and in the assay on Pythium ultimum (80 mg/l soil) were 12, 16 and 19, respectively.
On to `C=CCNC(=O)c1nnc([S+](C)[O-])s1` (stereo not shown) [5-methylsulfinyl-1,3,4-thiadiazole-2-carboxylic acid-allylamide], for which the “% activity” value in the assay with Plasmopara viticola (setting [3]) is given as 90%; with Helminthosporium gram (10 g active agent per 100 kg), 94%; with Helminthosporium gram (20 g active agent per 100 kg), 99%; with Helminthosporium gram (50 g active agent per 100 kg), 100%; in assay [1] (setting [5]) it was 100%; with Tilletia caries (10 g active agent per 100 kg), 99.2%. Also, the “% activity” value with Tilletia caries (20 g active agent per 100 kg) and with Tilletia caries (50 g active agent per 100 kg) was 100% in each case. Besides, the “root evaluation (1-4)” value with Pythium ultimum (20 mg/l soil), in the assay on Pythium ultimum (40 mg/l soil) and in the assay on Pythium ultimum (80 mg/l soil) was 4 throughout. In addition, the “number of sound peas” value in the assay on Pythium ultimum (20 mg/l soil) was found to be 20; with Pythium ultimum (40 mg/l soil) it was 19; in the assay with Pythium ultimum (80 mg/l soil), 18.
On to `C[S+]([O-])c1nnc(C(=O)NC2CC2)s1` (stereo not shown) [5-methylsulfinyl-1,3,4-thiadiazole-2-carboxylic acid-cyclopropylamide], for which the “% activity” value with Plasmopara viticola (setting [2]) was found to be 80%; with Plasmopara viticola (setting [3]) it was 90%; in the assay with Helminthosporium gram (10 g active agent per 100 kg), 72%; in the assay on Helminthosporium gram (20 g active agent per 100 kg), 98%; in the assay on Helminthosporium gram (50 g active agent per 100 kg) it was 99%; in the assay with Tilletia caries (20 g active agent per 100 kg) it was 98%. Moreover, the “% activity” value in the assay on Tilletia caries (50 g active agent per 100 kg) worked out at 100%. Moreover, the results for the “root evaluation (1-4)” value with Pythium ultimum (20 mg/l soil), in the assay on Pythium ultimum (40 mg/l soil) and with Pythium ultimum (80 mg/l soil) were 1, 4 and 4, respectively. In addition, the results for the “number of sound peas” value with Pythium ultimum (20 mg/l soil), in the assay with Pythium ultimum (40 mg/l soil) and with Pythium ultimum (80 mg/l soil) were 15, 20 and 20, respectively.
`CS(=O)(=O)c1nnc(C(=O)N2CCC2)s1` [5-methylsulfonyl-1,3,4-thiadiazole-2-carboxylic acid-N,N-trimethylenamide]: the “% activity” value in the assay with Plasmopara viticola (setting [2]) is on record as 84%; with Plasmopara viticola (setting [3]), 90%; with Tilletia caries (20 g active agent per 100 kg), 99%; in the assay on Tilletia caries (50 g active agent per 100 kg), 100%. The “root evaluation (1-4)” value with Pythium ultimum (20 mg/l soil), with Pythium ultimum (40 mg/l soil) and with Pythium ultimum (80 mg/l soil) was 4 each time. In addition, the “number of sound peas” value is reported as 19 in the assay with Pythium ultimum (20 mg/l soil), 20 in the assay with Pythium ultimum (40 mg/l soil) and 20 with Pythium ultimum (80 mg/l soil).
Take `CCC(C)S(=O)(=O)c1nnc(C(N)=O)s1` (stereo not shown) [5-sec.-butylsulfonyl-1,3,4-thiadiazole-2-carboxamide]: the figures for the “% activity” value (in the assay with Helminthosporium gram (50 g active agent per 100 kg); in assay [1] (setting [5])) were 97% and 94%, respectively.

Source of the values: patent US4281121A, “1,3,4-Thiadiazole-2-carboxylic acid derivatives, process for making the same and fungicidal and nematocidal compositions containing same” (Schering Aktiengesellschaft, priority 1978, dated 1981).
